This is an account of results in patent US6127339A, “Peptide for binding thereto a low density lipoprotein” (Asahi Kasei Kogyo Kabushiki Kaisha, priority 1995, dated 2000).

No end group written: not given here.

For one test, the system named is LDL. As to the kind of experiment: Staining of peptide-bonded resin with biotinylated LDL in plasma (ABC method). Format: binding. More on the design: key: the peptide-bonded resins which were stained are indicated with "+ (plus)"; the peptide-bonded resins which were not stained are indicated with "- (minus)". The settings on record: Table 1, peptide-bonded TG resin, room temperature 1 hour, peroxidase-streptoavidin/3,3'-diaminobenzidine. As for the experimental part:
With respect to the adsorbent comprising the water-insoluble carrier having bonded thereto the peptide, as a method for evaluating the binding ability (affinity) of the adsorbent for an LDL, there can be mentioned a method in which, after causing an LDL to be adsorbed on the adsorbent, the adsorbent having the LDL adsorbed thereon is subjected to staining (avidin-biotin complex method, that is, ABC method). Specifically, a biotinylated LDL is added to plasma, and the adsorbent is immersed in the plasma for a predetermined period of time. Then, the adsorbent is taken out of the plasma, and washed. Subsequently, the adsorbent is immersed in a horseradish peroxidase-labeled streptoavidin solution, and a solution of 3,3'-diamino benzidine, which is a substrate for the above-mentioned enzyme (horseradish peroxidase), is added thereto, thereby staining the adsorbent. The binding ability of the adsorbent for LDL is evaluated from the degree of the staining. With respect to methods for evaluating a binding ability for LDL, reference can be made to, for example, the following literature: S. M. Hsu, L. Raine, H. Fanger, J. Histchem. Cytochem., 29, 577 (1981); and H. Towbin, T. Staehelin, J. Gordon, Proc. Natl. Acad. Sci. U.S.A., 76, 4350 (1979).
The ability of each of the peptides to bind thereto an LDL was evaluated as follows. To a blood sample obtained from a healthy person was added a 3.8% aqueous solution of sodium citrate to thereby obtain a mixture. The obtained mixture was centrifuged to separate the blood sample into a blood cells component and a plasma component.
On the other hand, each of the above-mentioned polystyrene resins having bonded thereto the above-synthesized peptides was individually taken out from the synthesis reaction system and packed in a column having a filter (manufactured and sold by Bio-Rad laboratories, U.S.A.). Subsequently, the plasma-LDL mixture prepared above was added to the column, and the column was allowed to stand at room temperature for 1 hour. Then, the column was washed with a physiological saline containing 0.1% Tween 20 and sodium phosphate. After the washing, 1 ml of a horseradish peroxidase-labeled streptoavidine (0.2 ug/ml) solution containing 10% Block Ace (manufacturedand sold by Dainippon Pharmaceutical Co., Ltd., Japan) was added to the column, and the column was allowed to stand at room temperature for 30 minutes. Then, 1 ml of a 3,3'-diaminobenzidine tetrahydrochloride ([…]) solution containing 0.005% hydrogen peroxide was added to the column (by the addition of this solution, when a peptide-bonded resin contained in the column has the LDL bonded thereto, the resin is stained to assume brown color).
Results are shown in Table 1, wherein the peptide-bonded resins which were stained are indicated with "+ (plus)" and the peptide-bonded resins which were not stained are indicated with "- (minus)".
The ability of each of the peptides to bind thereto an LDL was evaluated in substantially the same manner as in Example 1.
As to “Comparative Example 1 Sample 1: comparative pentapeptide N1-N5 = R A H I N, bonded to TG polystyrene resin (RAHIN; not fully specified; printed as Arg Ala His Ile Asn) [reference compound]”, the Stain entry is listed as “-”.
Take “Comparative Example 1 Sample 2: comparative pentapeptide N1-N5 = P K S I N, bonded to TG polystyrene resin (PKSIN; not fully specified; printed as Pro Lys Ser Ile Asn) [reference compound]”: the Stain result is recorded as “-”.
With “Comparative Example 1 Sample 3: comparative pentapeptide N1-N5 = L H R H L, bonded to TG polystyrene resin (LHRHL; not fully specified; printed as Leu His Arg His Leu) [reference compound]”, the Stain result is recorded as “-”.
Consider “Comparative Example 1 Sample 4: comparative pentapeptide N1-N5 = L T M K M, bonded to TG polystyrene resin (LTMKM; not fully specified; printed as Leu Thr Met Lys Met) [reference compound]”, for which the Stain result is on record as “-”.
In the case of “Comparative Example 1 Sample 5: comparative pentapeptide N1-N5 = M L T V R, bonded to TG polystyrene resin (MLTVR; not fully specified; printed as Met Leu Thr Val Arg) [reference compound]”, the Stain result was “-”.
On to “Example 1 Sample 1: pentapeptide N1-N5 = R F Y Y M, bonded to TG polystyrene resin (RFYYM; not fully specified; printed as Arg Phe Tyr Tyr Met)”, for which the Stain result is given as “+”.
Take “Example 1 Sample 2: pentapeptide N1-N5 = F K I W W, bonded to TG polystyrene resin (FKIWW; not fully specified; printed as Phe Lys Ile Trp Trp)”: the Stain result is recorded as “+”.
Same read-out and setting: next, “Example 1 Sample 3: pentapeptide N1-N5 = W Q R H F, bonded to TG polystyrene resin (WQRHF; not fully specified; printed as Trp Gln Arg His Phe)”: “+”.
As for “Example 1 Sample 4: pentapeptide N1-N5 = I F Y K W, bonded to TG polystyrene resin (IFYKW; not fully specified; printed as Ile Phe Tyr Lys Trp)”, the Stain result is “+”.
Regarding “Example 1 Sample 5: pentapeptide N1-N5 = W A L Y R, bonded to TG polystyrene resin (WALYR; not fully specified; printed as Trp Ala Leu Tyr Arg)”, the Stain result is on record as “+”.

Staying with this test, now noted: Table 2, peptide-bonded TG resin, same manner as Example 1.
For the substance “Comparative Example 2 Sample 1: comparative pentapeptide N1-N5 = T H R Q R, bonded to TG polystyrene resin (THRQR; not fully specified; printed as Thr His Arg Gln Arg) [reference compound]”, the Stain result was “-”.
With “Comparative Example 2 Sample 2: comparative pentapeptide N1-N5 = H Y Y L Q, bonded to TG polystyrene resin (HYYLQ; not fully specified; printed as His Tyr Tyr Leu Gln) [reference compound]”, the Stain entry is listed as “-”.
Regarding “Comparative Example 2 Sample 3: comparative pentapeptide N1-N5 = W H V Q T, bonded to TG polystyrene resin (WHVQT; not fully specified; printed as Trp His Val Gln Thr) [reference compound]”, the Stain entry is “-”.
As for “Comparative Example 2 Sample 4: comparative pentapeptide N1-N5 = P N A F A, bonded to TG polystyrene resin (PNAFA; not fully specified; printed as Pro Asn Ala Phe Ala) [reference compound]”, the Stain result is listed as “-”.
The same measure, in the same setting: next, “Comparative Example 2 Sample 5: comparative pentapeptide N1-N5 = H W V V H, bonded to TG polystyrene resin (HWVVH; not fully specified; printed as His Trp Val Val His) [reference compound]”: “-”.
Regarding “Comparative Example 2 Sample 6: comparative pentapeptide N1-N5 = Y I Q V W, bonded to TG polystyrene resin (YIQVW; not fully specified; printed as Tyr Ile Gln Val Trp) [reference compound]”, the Stain result is “-”.
In the case of “Comparative Example 2 Sample 7: comparative pentapeptide N1-N5 = F G A I V, bonded to TG polystyrene resin (FGAIV; not fully specified; printed as Phe Gly Ala Ile Val) [reference compound]”, the Stain entry was “-”.
On to “Comparative Example 2 Sample 8: comparative pentapeptide N1-N5 = H A S N P, bonded to TG polystyrene resin (HASNP; not fully specified; printed as His Ala Ser Asn Pro) [reference compound]”, for which the Stain result was “-”.
On to “Comparative Example 2 Sample 9: comparative pentapeptide N1-N5 = E W S M T, bonded to TG polystyrene resin (EWSMT; not fully specified; printed as Glu Trp Ser Met Thr) [reference compound]”, for which the Stain entry is on record as “-”.
With “Comparative Example 2 Sample 10: comparative pentapeptide N1-N5 = F I I M E, bonded to TG polystyrene resin (FIIME; not fully specified; printed as Phe Ile Ile Met Glu) [reference compound]”, the Stain entry is listed as “-”.
For “Comparative Example 2 Sample 11: comparative pentapeptide N1-N5 = W V D H N, bonded to TG polystyrene resin (WVDHN; not fully specified; printed as Trp Val Asp His Asn) [reference compound]”, the Stain entry is “-”.
Same read-out and setting: next, “Comparative Example 2 Sample 12: comparative pentapeptide N1-N5 = E A K H E, bonded to TG polystyrene resin (EAKHE; not fully specified; printed as Glu Ala Lys His Glu) [reference compound]”: “-”; “Comparative Example 2 Sample 13: comparative pentapeptide N1-N5 = F N F E S, bonded to TG polystyrene resin (FNFES; not fully specified; printed as Phe Asn Phe Glu Ser) [reference compound]”: “-”; “Comparative Example 2 Sample 14: comparative pentapeptide N1-N5 = V E E M E, bonded to TG polystyrene resin (VEEME; not fully specified) [reference compound]”: “-”.
In the case of “Example 2 Sample 1: pentapeptide N1-N5 = W T A R R, bonded to TG polystyrene resin (WTARR; not fully specified; printed as Trp Thr Ala Arg Arg)”, the Stain entry is recorded as “+”.
On the same count and under the same terms, next, “Example 2 Sample 2: pentapeptide N1-N5 = F A Y R R, bonded to TG polystyrene resin (FAYRR; not fully specified; printed as Phe Ala Tyr Arg Arg)”: “+”; “Example 2 Sample 3: pentapeptide N1-N5 = R W I L Q, bonded to TG polystyrene resin (RWILQ; not fully specified; printed as Arg Trp Ile Leu Gln)”: “+”.
The same measure, in the same setting: next, “Example 2 Sample 4: pentapeptide N1-N5 = R F W L F, bonded to TG polystyrene resin (RFWLF; not fully specified; printed as Arg Phe Trp Leu Phe)”: “+”.
